Experimental data taken from US9006295B2, “Process for bacterial stabilizing of aqueous ground natural calcium carbonate and/or precipitated calcium carbonate and/or dolomite and/or surface-reacted calcium carbonate-comprising mineral preparations” (Omya International AG, priority 2009, dated 2015).
“Also recorded” adds a separate entry of the source.

Key:
[1] = test system: mixture of Pseudomonas species containing predominantly Pseudomonas putida and Pseudomonas stutzeri that are resistant to BM2; assay: Biocidal activity in slurry, BM2-resistant bacteria; type: cell-based; conditions: GNCCS1 slurry
Method: (§1) All quoted bacterial counts (Total Viable Count (TVC) values are in cfu/ml) in the Tables herebelow are determined after 5 days following plate-out and in accordance with counting method described in “Bestimmung von aeroben mesophilen Keimen”, Schweizerisches Lebensmittelbuch, chapter 56, section 7.01, edition of 1985, revised version of 1988.
BM2 and AMP were introduced into 50 g samples of each of the slurries indicated in Table 5 in the listed amounts (quoted in ppm based on the weight of the aqueous phase in the slurry). A reference was prepared according to the same protocol but in absence of AMP. References were prepared according to the same protocol but in absence of AMP and in absence of AMP and BM2.
(§2) The slurry samples were then inoculated with 1 ml of a mixture of Pseudomonas species containing predominantly Pseudomonas putida and Pseudomonas stutzeri that are resistant to BM2. Each of the samples was incubated at 30° C. for 72 hours. Thereafter, a 1:10 dilution in phosphate buffered saline (PBS) was plated on plate count agar (PCA). These plates were incubated at 30° C. and analysed after 5 days.
Biocide mixture 2 (BM2) is an aqueous solution containing 85% by weight of EGHF and 1.5% by weight of a combination of CIT and MIT (in a weight ratio CIT:MIT of 3:1), relative to the total solution weight. […]

[2] = test system: mixture of Pseudomonas species containing predominantly Pseudomonas putida and Pseudomonas stutzeri; assay: Biocidal activity in slurry (Total Viable Count after inoculation); type: cell-based; conditions: GNCCS1 slurry; Tables 1, 2 and 4
Method: as §1
Biocide mixture 1 (BM1) is an aqueous solution containing 24% by weight of GDA and 1.5% by weight of a combination of CIT and MIT (in a weight ratio CIT:MIT of 3:1), relative to the total solution weight. BM1 and AMP were introduced into 50 g samples of each of the slurries indicated in Table 1 in the listed amounts (quoted in ppm based on the weight of the aqueous phase in the slurry). References were prepared according to the same protocol but in absence of AMP and in absence of AMP and BM1.
as §2, with “stutzeri.” for “stutzeri that are resistant to BM2.”, “days. […]” for “days.”

Pseudomonas aeruginosa = conditions: in combination with 500 ppm of triazine biocide; TSB-based plates; cited from earlier work
[3] = test system: mixture of Pseudomonas species containing predominantly Pseudomonas putida and Pseudomonas stutzeri that are resistant to OPP; assay: Biocidal activity in slurry, OPP-resistant bacteria; type: cell-based; conditions: GNCCS1 slurry
Method: as §1
OPP, in the form of an aqueous solution having a concentration of 45%, and MEA were introduced into 50 g samples of each of the slurries indicated in Table 11 in the listed amounts (quoted in ppm active content based on the weight of the aqueous phase in the slurry). A reference was prepared according to the same protocol but in absence of MEA. References were prepared according to the same protocol but in absence of MEA and in absence of MEA and OPP.
as §2, with “OPP.” for “BM2.”
Test 59 below represents the same slurry as Test 58, but following a second inoculation of 1 ml of a mixture of Pseudomonas species. […]

[4] = test system: mixture of Pseudomonas species containing predominantly Pseudomonas putida and Pseudomonas stutzeri that are resistant to BM1; assay: Biocidal activity in slurry, BM1-resistant bacteria; type: cell-based; conditions: GNCCS1 slurry
Method: as §1
BM1 and AMP were introduced into 50 g samples of each of the slurries indicated in Table 3 in the listed amounts (quoted in ppm based on the weight of the aqueous phase in the slurry). References were prepared according to the same protocol but in absence of AMP and in absence of AMP and BM1.
as §2, with “BM1.” for “BM2.”
Biocide mixture 1 (BM1) is an aqueous solution containing 24% by weight of GDA and 1.5% by weight of a combination of CIT and MIT (in a weight ratio CIT:MIT of 3:1), relative to the total solution weight. […]

CC(C)(N)CO [AMP, 2-amino-2-methyl-1-propanol]
biocide enhancement (in words) [1]: enhances the biocide function of BM2 | biocide enhancement (in words) [2]: enhances the biocide function of BM1; also recorded: enhances the biocide function of BM2 | amount of AMP needed to significantly influence the growth rate of the bacteria (Pseudomonas aeruginosa): more than 4 000 ppm

NCCO [MEA, 2-aminoethanol]
biocide enhancement (in words) [1]: enhances the biocide function of BM2 | biocide enhancement (in words) [3]: enhances the biocide function of OPP | biocide enhancement (in words) [4]: enhances the biocide function of BM1
